The target in this experiment is CRBN/DDB1 protein (Homo sapiens, UniProt Q96SW2). As to the kind of experiment: Detection of inhibition of CRBN/DDB1 activity by compounds (FRET). The format is binding. As to the method:
Test Example 1 Detection of Inhibition of CRBN/DDB1 Activity by Compounds (FRET)
Microplate reader (BMG PHERAstar FSX), ECHO (LABCYTE Echo 665), microplate thermostatic oscillator (Hangzhou Ruicheng Instrument Co., Ltd.), disodium hydrogen phosphate (Sigma), sodium dihydrogen phosphate (Sigma), bovine serum albumin (Sigma), Anti-6His-Tb crypate Gold (CISBIO), CRBN/DDB1 protein (HitGen) and 384-well plate (Grenier Bio-one).
The dry powder of the compound was dissolved in DMSO, and the compound was serially diluted using ECHO, and added to a 384-well reaction plate, so that the final concentration of DMSO in the whole reaction system (10.0 μL) was 1.0%, and the same amount of DMSO was added as a control.
20 mM disodium hydrogen phosphate, 20 mM sodium dihydrogen phosphate, 0.08% bovine serum albumin and buffer with pH of 7.0 were used to dilute the CRBN/DDB1 protein to twice the required final concentration (5.0 nM), and 5.0 μL of the diluted CRBN/DDB1 protein was added into the 384-well reaction plate added with compounds, centrifuged at 1000 rpm for 1 min, then placed on a microplate thermostatic oscillator, and pre-incubated at 25° C. and 250 rpm for 15 min. 20 mM disodium hydrogen phosphate, 20 mM sodium dihydrogen phosphate, 0.08% bovine serum albumin and buffer with a pH of 7.0 were used to dilute Anti-6His-Tb crypate Gold and FITC-labeled thalidomide analogues to twice the required final concentration, and the final concentration of Anti-6His-Tb crypate Gold was 0.2 nM, the final concentration of FITC-labeled thalidomide analogues was 50.0 nM, and a mixed solution of Anti-6His-Tb crypate Gold/FITC-labeled thalidomide analogues was obtained. […] After the reaction was completed, the fluorescence signal value (Ex-337 nm Em=520/490 nm) in the 384-well reaction plate was read by the microplate reader. […]
The percentage of residual activity of each concentration was calculated as follows: […]
Then, the dose-effect curve was fitted using GraphPad Prism 6.0 and the IC50 value was calculated accordingly.

SMILES strings stand for the structures. Like-named read-outs stand apart in the source and are kept apart here.

Sequence of CRBN/DDB1 protein (Q96SW2 whole entry, species assumed): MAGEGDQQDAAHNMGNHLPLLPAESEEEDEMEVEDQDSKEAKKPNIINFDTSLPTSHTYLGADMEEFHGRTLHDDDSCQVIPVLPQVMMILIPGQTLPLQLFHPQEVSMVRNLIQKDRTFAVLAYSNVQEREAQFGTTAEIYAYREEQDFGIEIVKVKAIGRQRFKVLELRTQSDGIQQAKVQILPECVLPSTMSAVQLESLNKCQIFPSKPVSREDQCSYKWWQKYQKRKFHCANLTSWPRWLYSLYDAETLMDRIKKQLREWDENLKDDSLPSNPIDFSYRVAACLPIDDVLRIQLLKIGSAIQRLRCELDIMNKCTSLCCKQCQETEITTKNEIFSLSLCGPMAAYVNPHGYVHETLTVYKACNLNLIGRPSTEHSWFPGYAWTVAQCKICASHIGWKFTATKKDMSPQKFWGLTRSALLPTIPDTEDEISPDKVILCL
Sequence of CRBN/DDB1 protein (Q16531 whole entry partner, species assumed): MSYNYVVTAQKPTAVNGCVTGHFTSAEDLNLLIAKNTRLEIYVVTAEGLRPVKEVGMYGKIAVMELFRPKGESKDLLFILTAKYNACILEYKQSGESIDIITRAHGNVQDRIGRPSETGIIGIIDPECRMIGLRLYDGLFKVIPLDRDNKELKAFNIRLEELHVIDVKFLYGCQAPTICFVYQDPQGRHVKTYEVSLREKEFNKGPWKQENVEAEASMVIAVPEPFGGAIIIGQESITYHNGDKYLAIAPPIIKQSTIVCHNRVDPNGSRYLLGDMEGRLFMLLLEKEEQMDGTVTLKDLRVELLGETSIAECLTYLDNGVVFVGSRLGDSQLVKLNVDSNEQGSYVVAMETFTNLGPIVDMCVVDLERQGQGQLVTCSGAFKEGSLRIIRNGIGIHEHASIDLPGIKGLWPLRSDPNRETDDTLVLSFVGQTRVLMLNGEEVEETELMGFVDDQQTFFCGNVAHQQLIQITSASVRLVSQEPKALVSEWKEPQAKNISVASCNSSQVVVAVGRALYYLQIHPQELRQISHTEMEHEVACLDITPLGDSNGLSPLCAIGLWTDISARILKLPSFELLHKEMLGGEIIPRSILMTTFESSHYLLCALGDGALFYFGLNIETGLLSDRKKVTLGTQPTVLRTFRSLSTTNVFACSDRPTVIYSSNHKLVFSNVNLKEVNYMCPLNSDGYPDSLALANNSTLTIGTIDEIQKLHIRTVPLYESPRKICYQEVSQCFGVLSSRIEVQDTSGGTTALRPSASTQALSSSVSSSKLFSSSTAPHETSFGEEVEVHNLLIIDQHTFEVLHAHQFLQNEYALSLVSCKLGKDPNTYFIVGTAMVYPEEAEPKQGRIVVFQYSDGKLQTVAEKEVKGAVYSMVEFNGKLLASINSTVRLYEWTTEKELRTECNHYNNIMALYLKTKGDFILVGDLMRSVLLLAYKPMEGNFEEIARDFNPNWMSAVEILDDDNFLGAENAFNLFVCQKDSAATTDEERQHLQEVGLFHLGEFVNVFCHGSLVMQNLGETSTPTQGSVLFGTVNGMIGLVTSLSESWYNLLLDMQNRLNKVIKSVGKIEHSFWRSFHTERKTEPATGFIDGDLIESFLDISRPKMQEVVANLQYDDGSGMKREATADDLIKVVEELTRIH

`O=C1CC2(CN(C(=O)c3c4n(c5ccccc35)C=NC4=O)C2)C(=O)N1` [Compound B3] gave an IC50 of 0.043 µM.

For `O=C1CC2(CN(C(=O)c3c4n(c5ccccc35)CNC4=O)C2)C(=O)N1` [Compound B4], the IC50 came out at 0.018 µM.

In the case of `CN1Cn2c(c(C(=O)N3CC4(CC(=O)NC4=O)C3)c3ccccc32)C1=O` [Compound B5], the IC50 (FRET, 5.0 nM CRBN/DDB1, 0.2 nM Anti-6His-Tb, 50.0 nM FITC-labeled thalidomide analogue, 1.0% DMSO, 25° C., read-out: IC50, inhibition of CRBN/DDB1 protein) stood at 0.011 µM.
